Results as given in patent publication US12643867B2, “Compositions and uses thereof” (University of Virginia Patent Foundation, priority 2017, dated 2026).

Columns and labels:
Assay in all cases: SILAC LC-MS ATP acyl phosphate probe competition, native kinases in HEK293T
Format in all cases: binding
[1] = molecular target: T1, KCC2G (Calcium/calmodulin-dependent protein kinase type II gamma chain) (Homo sapiens, UniProt Q13555); settings: site Lys1; ATP 1 mM; Ketanserin, Ritanserin 100 μM; RF001 1 mM
T1 construct: measured against >50 native kinases quantified in HEK293T soluble proteomes; endogenous in cells; host or cells: HEK293T soluble proteome
Description: (§1) Proteomes were diluted to 2 mg/ml in kinase buffer. The light and heavy proteomes (0.5 mg, 250 μL total reaction volume) were pre-treated with vehicle or compound, respectively (5 μL, DMSO (light) or 50× stock in DMSO (heavy)), mixed gently, and incubated at 25° C. for 30 min. […] After incubation, matched light and heavy proteomes were transferred and mixed in a 1:1 ratio in a two-dram vial containing 4:1:3 MeOH/CHCl3/H2O (2 mL MeOH, 500 AL CHCl3, 1.5 mL H2O) for extraction of proteins to remove excess probe, quickly vortexed, and centrifuged at 1,400×g for 3 min to pellet protein. Organic and aqueous layers were removed using a Pasteur pipette, and the protein pellet was transferred to a screw-top tube in 600 μL MeOH. A second extraction was performed by adding CHCl3 (150 μL) and H2O (600 μL) to each sample, vortexed, and centrifuged at 1,400×g for 3 min to pellet protein. Organic and aqueous layers were removed by pipetting. MeOH added to pellet (600 μL) and pellets were re-suspended by sonication (3×1 sec pulse, 20% amplitude) for a final extraction. Samples were then centrifuged at 17,000×g for 5 min to pellet protein and MeOH was removed by pipetting. The pellets were re-suspended in 10 M urea/25 mM ammonium bicarbonate ([…]), brought to a final volume of 1 mL with 25 mM ammonium bicarbonate, reduced with 10 mM DTT for 15 min at 65° C. allowed to cool, and then alkylated with 40 mM iodoacetamide for 30 min at 25° C. in the dark. To desalt the samples, each was transferred to a two-dram glass vial, and to the vial 4:1:2 MeOH/CHCl3/H2O (2 mL MeOH, 500 AL CHCl3, 1 mL H2O) was added. The vials were vortexed quickly, spun at 1.400×g for 3 min to pellet protein, and aqueous and organic layers were removed using a Pasteur pipette. The resulting protein pellet was transferred to a screw-top tube in 600 μL MeOH, and then CHCl3 (150 μL) and HO (600 μL) were added to extract protein a second time. The samples were vortexed quickly, centrifuged at 1,400×g to pellet protein, and the aqueous and organic layers were removed by pipetting. Resulting protein pellet was suspended in MeOH (600 μL) via sonication (3×1 sec pulse, 20% amplitude), centrifuged at 17,000×g for 5 min to pellet protein, and MeOH removed by pipetting. Protein pellets were then re-suspended in 25 mM ammonium bicarbonate (500 μL) and digested with 7.5 μg Trypsin/Lys-C(Promega, 15 μL, 0.5 μg/μL) for 3 h at 37° C. Avidin-agarose beads (Thermo Scientific Pierce, 100 AL aliquot per sample) were washed three times by adding 10 mL DPBS, centrifuged at 1,400×g for 1 min, and decanting. This wash step was repeated for a total of 3 times. Digested protein samples were mixed with washed avidin beads (100 μL) and brought to a volume of 5.5 mL with DPBS in a 15 mL conical and rotated for 1 h to enrich samples for the covalent desthiobiotin modification. The beads were washed with 25 mM ammonium bicarbonate (3× with 10 mL, centrifuge at 1,400×g for 3 min, decant) and then H2O (3× with 10 mL, centrifuge at 1,400×g for 3 min, decant). Washed beads were then transferred to a low-bind microfuge tube, centrifuged at 1,400×g for 3 min, allowed to rest for 1 min to settle beads, and then excess H2O was removed carefully using a gel-loading pipette tip. To elute peptides, 100 μL of elution buffer (50% acetonitrile, ACN; 0.1% formic acid) was added to each sample and incubated for 3 min. Beads were spun down at 1.400×g for 3 min, allowed to rest for 1 min to settle beads, and then 75 μL of peptide-containing supernatant was removed carefully using a gel-loading pipette tip and transferred to a new low bind centrifuge tube. This step was repeated two more times with 75 μL of elution buffer and all eluent were collected into the same centrifuge tube (˜225 μL total). Peptides were dried on a speed vacuum, resulting peptide samples acidified in 5% (v/v) formic acid, and stored at −80° C. until analysis.
(§2) The peptide samples were analyzed by liquid chromatography-mass spectrometry. […]

[2] = molecular target: T2, PAN3 (PAB-dependent poly(A)-specific ribonuclease subunit) (Homo sapiens, UniProt Q58A45); settings: site ATP; ATP 1 mM; Ketanserin, Ritanserin 100 μM; RF001 1 mM
T2 construct: Native kinases; endogenous in cells; host or cells: HEK293T soluble proteome
T2 sequence (Q58A45 1-887): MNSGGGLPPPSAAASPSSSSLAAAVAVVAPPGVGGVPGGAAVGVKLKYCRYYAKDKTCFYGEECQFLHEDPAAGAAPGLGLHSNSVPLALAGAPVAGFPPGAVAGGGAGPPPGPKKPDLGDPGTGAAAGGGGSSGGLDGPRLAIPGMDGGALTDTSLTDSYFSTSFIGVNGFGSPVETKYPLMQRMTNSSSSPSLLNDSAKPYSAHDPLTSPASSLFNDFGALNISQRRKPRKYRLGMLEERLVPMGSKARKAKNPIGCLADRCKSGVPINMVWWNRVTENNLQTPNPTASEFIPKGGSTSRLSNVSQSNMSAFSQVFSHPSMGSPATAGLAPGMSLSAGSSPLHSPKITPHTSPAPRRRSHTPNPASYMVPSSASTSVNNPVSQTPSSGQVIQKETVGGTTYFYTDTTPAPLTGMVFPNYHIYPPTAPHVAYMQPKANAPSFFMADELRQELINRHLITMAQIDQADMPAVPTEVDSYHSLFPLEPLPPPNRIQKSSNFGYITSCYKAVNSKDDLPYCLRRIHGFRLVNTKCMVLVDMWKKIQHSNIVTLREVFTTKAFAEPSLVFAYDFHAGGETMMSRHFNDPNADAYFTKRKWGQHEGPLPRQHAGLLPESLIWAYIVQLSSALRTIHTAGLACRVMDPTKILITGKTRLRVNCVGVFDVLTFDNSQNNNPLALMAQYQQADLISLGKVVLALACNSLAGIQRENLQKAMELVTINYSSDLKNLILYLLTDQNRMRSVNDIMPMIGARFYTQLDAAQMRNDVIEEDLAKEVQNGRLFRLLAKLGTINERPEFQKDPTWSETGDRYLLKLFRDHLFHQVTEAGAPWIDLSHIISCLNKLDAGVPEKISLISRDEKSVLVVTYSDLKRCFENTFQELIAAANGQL
Description: as §1, §2

[3] = molecular target: T3, KS6B2 (Ribosomal protein S6 kinase 2) (Homo sapiens, UniProt Q9UBS0); settings: site Lys2; ATP 1 mM; Ketanserin, Ritanserin 100 μM; RF001 1 mM
T3 construct: measured against >50 native kinases quantified in HEK293T soluble proteomes; endogenous in cells; host or cells: HEK293T soluble proteome
Description: as §1, §2

T3 sequence (Q9UBS0 whole entry): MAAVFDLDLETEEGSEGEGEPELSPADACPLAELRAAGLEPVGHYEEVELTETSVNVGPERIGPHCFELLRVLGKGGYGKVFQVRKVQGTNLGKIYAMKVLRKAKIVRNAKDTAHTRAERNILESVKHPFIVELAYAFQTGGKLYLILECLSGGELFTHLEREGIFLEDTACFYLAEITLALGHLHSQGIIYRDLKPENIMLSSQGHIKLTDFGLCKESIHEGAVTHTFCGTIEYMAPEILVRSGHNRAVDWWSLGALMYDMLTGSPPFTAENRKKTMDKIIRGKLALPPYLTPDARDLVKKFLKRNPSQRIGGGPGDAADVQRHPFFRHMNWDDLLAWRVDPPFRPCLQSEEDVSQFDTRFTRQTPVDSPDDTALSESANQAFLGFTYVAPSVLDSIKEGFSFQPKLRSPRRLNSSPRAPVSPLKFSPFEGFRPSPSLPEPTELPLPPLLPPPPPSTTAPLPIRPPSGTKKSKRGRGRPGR
T1 sequence (Q13555 whole entry): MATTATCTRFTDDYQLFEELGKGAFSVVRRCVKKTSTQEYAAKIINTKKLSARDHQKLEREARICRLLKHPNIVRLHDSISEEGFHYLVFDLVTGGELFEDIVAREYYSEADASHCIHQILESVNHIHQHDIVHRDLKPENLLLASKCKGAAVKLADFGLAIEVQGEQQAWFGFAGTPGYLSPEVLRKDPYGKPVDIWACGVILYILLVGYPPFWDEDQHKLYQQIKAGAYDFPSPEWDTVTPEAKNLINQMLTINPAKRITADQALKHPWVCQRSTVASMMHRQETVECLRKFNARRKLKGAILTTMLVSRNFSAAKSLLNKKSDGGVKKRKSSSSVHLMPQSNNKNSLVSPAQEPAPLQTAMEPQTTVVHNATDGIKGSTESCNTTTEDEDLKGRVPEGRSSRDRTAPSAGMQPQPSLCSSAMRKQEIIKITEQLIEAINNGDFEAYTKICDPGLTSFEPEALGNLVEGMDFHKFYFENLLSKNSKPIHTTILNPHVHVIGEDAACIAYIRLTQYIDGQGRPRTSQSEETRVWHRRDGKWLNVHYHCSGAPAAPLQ

`Cc1nc2sccn2c(=O)c1CCN1CCC(=C(c2ccc(F)cc2)c2ccc(F)cc2)CC1` [Ritanserin] was tested, and the “SILAC ratio, KCC2G probe-modified peptide” value [1] was 2.7, the “SILAC ratio, PAN3 probe-modified peptide” value [2] was 1.8 and the “SILAC ratio, KS6B2 probe-modified peptide” value [3] was 1.4.
With `Fc1ccc(C(=C2CCNCC2)c2ccc(F)cc2)cc1` [RF001, 4-(Bis(4-fluorophenyl)methylene) piperidine] the “SILAC ratio, KCC2G probe-modified peptide” value [1] was 1.6, the “SILAC ratio, PAN3 probe-modified peptide” value [2] was 1.3 and the “SILAC ratio, KS6B2 probe-modified peptide” value [3] was 1.7.
With `O=C(c1ccc(F)cc1)C1CCN(CCn2c(=O)[nH]c3ccccc3c2=O)CC1` [Ketanserin] the “SILAC ratio, KCC2G probe-modified peptide” value [1] was 1.5, the “SILAC ratio, PAN3 probe-modified peptide” value [2] was 1.3 and the “SILAC ratio, KS6B2 probe-modified peptide” value [3] was 1.1.
